Read-outs that look alike come from different tables or passages of the source.
Experiments:
[1] = tested on: 16R5-5 (A375 F11 clone with acquired resistance to Compound A); assay: Cell growth inhibition assay (Cell Titer Glo, 3 days); format: cell-based; settings: Homo sapiens, A-375, 72 h, 16R5-5: NRAS Q61Q/K, MEK1 P387P/S, single agent, read-out: IC50, Single Agent Effect, Compound A
Experimental: (§3) A clonal isolate, hereinafter referred to as “A375 F11”, was obtained from the A375 cell line (obtained from ATCC), based on increased sensitivity to a BRAF inhibitor. A375 F11 cells were exposed to increasing concentrations of Compound A and maintained in a final concentration of 1.26 μM or 1.6 μM. 12R5-3, 12R8-1, 12R8-3, 16R5-5, 16R6-2, 16R6-3 and 16R6-4 were derived as single cell clones from mixed populations of these A375 F11 cells selected to grow in the presence of Compound A. All cells were grown in RPMI 1640 medium containing 10% Fetal Bovine Serum (FBS).
(§4) All cells were cultured without compound, e.g. Compound A, for a minimum of 72 hours prior to cell plating. Cells were assayed in a 96-well tissue culture plate (NUNC 136102) of RPMI medium containing 10% FBS for all cells at 1,000 cells per well. Approximately 24 hours after plating, cells were exposed to ten, three-fold serial dilutions of compound or the combination of the two agents at a constant molar to molar ratio, e.g. 10:1 Compound A to Compound B, in RPMI media containing 10% FBS. Cells were incubated in the presence of compounds for 3 days. ATP levels were determined by adding Cell Titer Glo® (Promega) according to the manufacturer's protocol. Briefly, Cell Titer Glo® was added each plate, incubated for 30 minutes then luminescent signal was read on the SpectraMax L plate reader with a 0.5 sec integration time. Inhibition of cell growth was estimated after treatment with compound or combination of compounds for three days and comparing the Cell Titer Glo® signal to cells treated with vehicle (DMSO). Cell growth was calculated relative to vehicle (DMSO) treated control wells.
(§5) For single agent and combination treatments, cells were exposed to compounds at a fixed-dose-ratio, and dose response curves were fit to the experimental data and analyzed using regression models.

[2] = tested on: A375 cells, Mock; assay: Proliferation of BacMAM-transduced A375 cells; format: cell-based; settings: Homo sapiens, A-375, read-out: IC50, inhibition of proliferation
Experimental: (§1) BacMAM constructs were generated using MEK1 cDNA and mutations in MEK1 were introduced using site directed mutagenesis. BacMAM virus particles were prepared as described in the supplemental methods. A375 cells were transduced with the indicated BacMAM virus. Forty-eight hours post transduction, cells were plated for subsequent proliferation and western blot analysis as described above.

[3] = tested on: A375 cells expressing wild-type MEK1; assay: Proliferation of BacMAM-transduced A375 cells; format: cell-based; settings: Homo sapiens, A-375, read-out: IC50, inhibition of proliferation
Experimental: as §1

[4] = tested on: A375 cells expressing MEK1P124L; assay: Proliferation of BacMAM-transduced A375 cells; format: cell-based; settings: Homo sapiens, A-375, read-out: IC50, inhibition of proliferation
Experimental: as §1

[5] = tested on: A375 cells expressing MEK1F129L; assay: Proliferation of BacMAM-transduced A375 cells; format: cell-based; settings: Homo sapiens, A-375, read-out: IC50, inhibition of proliferation
Experimental: as §1

[6] = tested on: A375 cells expressing MEK1Q56P; assay: Proliferation of BacMAM-transduced A375 cells; format: cell-based; settings: Homo sapiens, A-375, read-out: IC50, inhibition of proliferation
Experimental: as §1

[7] = tested on: A375 cells expressing MEK1C121S; assay: Proliferation of BacMAM-transduced A375 cells; format: cell-based; settings: Homo sapiens, A-375, read-out: IC50, inhibition of proliferation
Experimental: as §1

[8] = tested on: A375 cells expressing MEK1K59del; assay: Proliferation of BacMAM-transduced A375 cells; format: cell-based; settings: Homo sapiens, A-375, read-out: IC50, inhibition of proliferation
Experimental: as §1

[9] = tested on: 12R8-3 (A375 F11 clone with acquired resistance to Compound A); assay: Cell growth inhibition assay (Cell Titer Glo, 3 days); format: cell-based; settings: Homo sapiens, A-375, 72 h, 12R8-3: NRAS A146A/T, MEK1 WT, single agent, read-out: IC50, Single Agent Effect, Compound A
Experimental: as §3, §4, §5

[10] = tested on: 12R5-3 (A375 F11 clone with acquired resistance to Compound A); assay: as above; format: cell-based; settings: Homo sapiens, A-375, 72 h, 12R5-3: NRAS A146A/T, MEK1 WT, single agent, read-out: IC50, Single Agent Effect, Compound A
Experimental: as §3, §4, §5

[11] = tested on: A375 F11 clones that acquired resistance to Compound A; assay: Cell growth inhibition assay, resistant A375 clones taken together; settings: Homo sapiens
Experimental: as §3, §4, §5

[12] = tested on: 16R6-3 (A375 F11 clone with acquired resistance to Compound A); assay: Cell growth inhibition assay (Cell Titer Glo, 3 days); format: cell-based; settings: Homo sapiens, A-375, 72 h, 16R6-3: NRAS A146A/T, MEK1 P387P/S, single agent, read-out: IC50, Single Agent Effect, Compound A
Experimental: as §3, §4, §5

[13] = tested on: 16R6-4 (A375 F11 clone with acquired resistance to Compound A); assay: as above; format: cell-based; settings: Homo sapiens, A-375, 72 h, 16R6-4: NRAS Q61Q/K, A146A/T, MEK1 P387P/S, single agent, read-out: IC50, Single Agent Effect, Compound A
Experimental: as §3, §4, §5

[14] = tested on: A375 F11 cells; assay: as above; format: cell-based; settings: Homo sapiens, 72 h, F11: NRAS WT, MEK1 WT, single agent, mean ± std, read-out: IC50, Single Agent Effect, Compound A
Experimental: as §3, §4, §5

[15] = tested on: phosphorylation of MEK, ERK, S6P in A375 clones resistant to Compound A; assay: Western blot of signaling effects, resistant clones; format: cell-based, human; settings: western blot (FIG. 10)
Description: (§2) Phospho-AKT (T308), phospho-AKT (S473), AKT, ERK, phospho-S6P (S235/236), S6P, cyclin D1, phospho-MEK1/2 (S217/S221), MEK1/2, MEK1, MEK2, and cleaved PARP antibodies were purchased from Cell Signaling. Primary antibodies to GAPDH, RAF-1, BRAF, and ARAF were purchased from Santa Cruz Biotechnology. Diphospho-ERK1/2 (T202/Y204) antibodies were purchased from Sigma and p27kip1 antibodies were purchased from Epitomics. Anti-Mouse IRDYE® 800CW antibody was purchased from LI-COR Biosciences. Anti-rabbit ALEXA FLUOR® 680 antibodies were purchased from Invitrogen. Compound A, Compound B, Compound C, and PLX4032 (20) were synthesized by GlaxoSmithKline Research Labs and the structures are shown in FIG. 7.

[16] = tested on: YUSIT1 clones that acquired resistance to Compound A (BRAF V600K); assay: Cell growth inhibition assay, resistant YUSIT1 clones; format: cell-based, human
Description: The YUSIT1 melanoma cells were obtained from Yale Dermatology Cell Culture Facility.

[17] = tested on: 12R5-5 (A375 F11 clone with acquired resistance to Compound A); assay: Cell growth inhibition assay (Cell Titer Glo, 3 days); format: cell-based; settings: Homo sapiens, A-375, 72 h, 12R5-5: NRAS WT, MEK1 HET 59delK, single agent, read-out: IC50, Single Agent Effect, Compound A
Experimental: as §3, §4, §5

[18] = tested on: 12R5-1 (A375 F11 clone with acquired resistance to Compound A); assay: as above; format: cell-based; settings: Homo sapiens, A-375, 72 h, 12R5-1: NRAS WT, MEK1 HET 59delK, single agent, read-out: IC50, Single Agent Effect, Compound A
Experimental: as §3, §4, §5

[19] = tested on: phosphorylation of MEK, ERK, S6P and cyclin D1 protein in A375 cells; assay: Western blot of signaling effects, parental cells; format: cell-based, human; settings: western blot (FIG. 10)
Description: as §2

[20] = tested on: 12R8-1 (A375 F11 clone with acquired resistance to Compound A); assay: Cell growth inhibition assay (Cell Titer Glo, 3 days); format: cell-based; settings: Homo sapiens, A-375, 72 h, 12R8-1: NRAS A146A/T, MEK1 WT, single agent, read-out: IC50, Single Agent Effect, Compound A
Experimental: as §3, §4, §5

[21] = tested on: 16R6-2 (A375 F11 clone with acquired resistance to Compound A); assay: as above; format: cell-based; settings: Homo sapiens, A-375, 72 h, 16R6-2: NRAS Q61Q/K, MEK1 P387P/S, single agent, read-out: IC50, Single Agent Effect, Compound A
Experimental: as §3, §4, §5

CC(C)(C)c1nc(-c2cccc(NS(=O)(=O)c3c(F)cccc3F)c2F)c(-c2ccnc(N)n2)s1 [Compound A, N-{3-[5-(2-Amino-4-pyrimidinyl)-2-(1,1-dimethylethyl)-1,3-thiazol-4-yl]-2-fluorophenyl}-2,6-difluorobenzenesulfonamide]
IC50 [1]: > 10000 nM | IC50 [2]: 30 nM | IC50 [3]: 28 nM | IC50 [4]: 84 nM | IC50 [5]: 140 nM | IC50 [6]: ≥ 420 nM | IC50 [7]: ≥ 330 nM | IC50 [8]: 179 nM | IC50 [9]: > 10000 nM | IC50 [10]: > 10000 nM | IC50 ([11]; A-375, read-out: IC50, cell growth): > 10000 nM | IC50 ([11]; A-375, read-out: IC50, cell growth inhibition, single agent): > 10000 nM | IC50 ([11]; A-375, read-out: IC50 of the combination, for Compound A): 178 to 392 nM | IC50 [12]: > 10000 nM | IC50 [13]: > 10000 nM | IC50 [14]: 24 ± 17 nM | reduction of ERK phosphorylation [15]: less than 50% | reduction of S6P phosphorylation [15]: < 25% | IC50 ([16]; Homo sapiens, read-out: IC50, cell growth inhibition): > 500 nM | reduced sensitivity compared to the parental YUSIT1 cells ([16]; YUSIT1 clones resistant to Compound A, single agent (FIG. 9)): ≥ 38 fold | IC50 [17]: > 10000 nM | IC50 [18]: > 10000 nM | decrease of cyclin D1 protein levels [19]: more than 65% | inhibition of phosphorylation of MEK, ERK, and S6P [19]: more than 75% | IC50 [20]: > 10000 nM | IC50 [21]: > 10000 nM

From patent publication US20130231347A1, “METHOD OF TREATMENT WITH BRAF INHIBITOR” (GLAXOSMITHKLINE INTELLECTUAL PROPERTY (NO.2) LIMITED, priority 2010, published 2013)
